Molecular target: SARS-CoV-2 M^pro (main protease, 3CL^pro, NSP5) (Severe acute respiratory syndrome coronavirus 2, UniProt P0DTD1)
Assay: fluorogenic substrate cleavage, Morrison fit
Format: biochemical
Details: HEPES 25 mM pH 7.0; fluorogenic substrate SAE0180

In the case of `O=C(NCCN1CCCC1)N1c2ccccc2Sc2ccccc21` [compound 3, 4080], the Ki is reported as 80 µM.
